Measurements reported in PMC12871931, “The importin‐alpha superfamily engages in ethylene signaling by shuttling [sequence] INSENSITIVE 2 from the endoplasmic reticulum to the nucleus” (The Febs Journal, 2025).

System: EIN2C^479–1294ΔNLS
Assay: In planta FLIM‐FRET, EIN2C^479–1294ΔNLS‐CER donor, IMPα3‐YFP acceptor
Format: cell-based, Arabidopsis thaliana
Settings: co‐expression of IMPα3‐YFP acceptor, negative control, t‐test
From the text: To further investigate the interaction between members of the IMPα superfamily and EIN2 in planta, we used in vivo fluorescence lifetime microscopy and Förster's resonance energy transfer (FLIM‐FRET). Accordingly, the C‐terminal part of EIN2 (EIN2C^479–1294) was fused to the fluorescent protein Cerulean (CER), serving as a donor, and the IMPα isoforms (IMPα1‐7) were fused to YELLOW FL[…] (YFP), serving as acceptors.
FRET efficiencies ranged between 2.8–4.6%. […] Given that nuclear import of the EIN2C^479–1294ΔNLS variant is abolished, we then tested whether this is due to an impaired interaction with IMPα proteins. […]
A modified version of a previously described procedure was used for the transient transformation of N. benthamiana. […] For co‐infiltration, bacteria solutions were mixed in equal quantities, and Agrobacterium strain GV3101:p19 expressing the p19 silencing inhibitor was added to each mix. […]
Fluorescence lifetime imaging was performed using a protocol described previously. Fluorescence lifetime was measured at a Zeiss LSM 780 confocal microscope (40× water immersion objective, Zeiss C‐PlanApo, NA 1.2). […] Photons were detected in both donor and acceptor channels simultaneously with Tau‐SPADs (PicoQuant, Berlin, Germany). […] Fluorescence lifetime images were acquired in the cytosol, ER, or nucleus in donor‐only samples and samples with IMPα1‐4 and IMPα7. […]

Q: With “IMPα3‐YFP: A. thaliana IMPα3 fused to YFP, FRET acceptor” as the substance, how does the “fluorescence lifetime of EIN2^479–1294ΔNLS‐CER” value read?
A: did not result in a reduction of the fluorescence lifetime
